This is an account of results in ChEMBL document CHEMBL5465560, “Selectivity Literature for EUbOPEN Chemogenomic Library” (2024).

Assay [1] has as its target T1, Mitogen-activated protein kinase kinase kinase 6 (Homo sapiens) (UniProt O95382).
T1 sequence (whole entry): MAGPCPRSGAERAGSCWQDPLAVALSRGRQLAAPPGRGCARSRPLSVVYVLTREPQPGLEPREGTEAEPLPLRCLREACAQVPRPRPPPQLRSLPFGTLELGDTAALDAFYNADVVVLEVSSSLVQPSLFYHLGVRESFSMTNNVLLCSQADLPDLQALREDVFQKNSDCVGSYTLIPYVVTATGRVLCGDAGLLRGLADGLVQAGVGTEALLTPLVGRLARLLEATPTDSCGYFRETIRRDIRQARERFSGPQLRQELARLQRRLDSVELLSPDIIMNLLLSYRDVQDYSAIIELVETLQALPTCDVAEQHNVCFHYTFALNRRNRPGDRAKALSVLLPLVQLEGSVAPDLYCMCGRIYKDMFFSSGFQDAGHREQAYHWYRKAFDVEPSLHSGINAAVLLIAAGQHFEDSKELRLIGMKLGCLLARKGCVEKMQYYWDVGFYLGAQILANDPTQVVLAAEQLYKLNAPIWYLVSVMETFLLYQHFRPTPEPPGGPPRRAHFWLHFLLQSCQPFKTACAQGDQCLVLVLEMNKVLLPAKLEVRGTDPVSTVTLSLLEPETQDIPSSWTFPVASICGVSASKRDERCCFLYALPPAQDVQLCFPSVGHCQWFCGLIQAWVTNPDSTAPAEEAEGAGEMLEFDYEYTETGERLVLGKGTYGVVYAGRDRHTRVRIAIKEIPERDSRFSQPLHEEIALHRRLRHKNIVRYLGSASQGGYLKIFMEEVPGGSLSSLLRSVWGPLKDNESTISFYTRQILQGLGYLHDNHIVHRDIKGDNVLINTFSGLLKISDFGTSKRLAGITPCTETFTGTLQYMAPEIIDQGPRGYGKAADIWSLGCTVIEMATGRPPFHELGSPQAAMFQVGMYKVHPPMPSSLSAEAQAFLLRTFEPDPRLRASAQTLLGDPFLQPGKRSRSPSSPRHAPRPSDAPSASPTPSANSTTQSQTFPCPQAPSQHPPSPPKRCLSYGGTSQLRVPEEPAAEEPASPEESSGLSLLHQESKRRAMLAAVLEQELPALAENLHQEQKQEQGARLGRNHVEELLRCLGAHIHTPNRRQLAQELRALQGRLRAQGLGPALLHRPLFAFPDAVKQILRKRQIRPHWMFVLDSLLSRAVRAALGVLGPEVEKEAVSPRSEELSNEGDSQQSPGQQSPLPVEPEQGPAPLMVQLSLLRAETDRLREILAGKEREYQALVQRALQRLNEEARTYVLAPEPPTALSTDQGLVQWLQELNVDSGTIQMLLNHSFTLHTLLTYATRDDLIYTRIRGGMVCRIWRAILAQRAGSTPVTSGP
In words: Selectivity interaction (KinomeScan (DiscoverX)) EUB0000607a MAP3K6. Conditions: at 10 µM.

Assay [2] deals with Calcium/calmodulin-dependent protein kinase type II subunit delta (Homo sapiens) (UniProt Q13557). In words: Selectivity interaction (KinomeScan (DiscoverX)) EUB0000607a CAMK2D. The note with it: at 10 µM.
Assay [3] deals with Receptor-interacting serine/threonine-protein kinase 2 (Homo sapiens, UniProt O43353). In words: Selectivity interaction (KinomeScan (DiscoverX)) EUB0001079a RIPK2. The note with it: at 1 µM.
The target of assay [4] is T2, Serine/threonine-protein kinase 3 (Homo sapiens) (UniProt Q13188).
T2 sequence (whole entry): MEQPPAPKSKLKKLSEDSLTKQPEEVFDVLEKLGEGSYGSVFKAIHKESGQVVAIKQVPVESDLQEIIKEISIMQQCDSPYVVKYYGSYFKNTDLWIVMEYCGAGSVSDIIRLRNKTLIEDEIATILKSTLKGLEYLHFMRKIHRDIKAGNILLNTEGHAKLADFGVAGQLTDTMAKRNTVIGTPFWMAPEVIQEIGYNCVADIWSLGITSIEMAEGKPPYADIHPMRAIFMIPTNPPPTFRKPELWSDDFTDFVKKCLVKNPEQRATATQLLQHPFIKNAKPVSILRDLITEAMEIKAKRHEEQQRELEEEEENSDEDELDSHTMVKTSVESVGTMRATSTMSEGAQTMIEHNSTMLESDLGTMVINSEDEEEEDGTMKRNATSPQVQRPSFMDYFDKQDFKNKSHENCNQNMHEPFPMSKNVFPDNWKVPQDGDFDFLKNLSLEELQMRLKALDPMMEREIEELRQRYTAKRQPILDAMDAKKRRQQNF
In words: Selectivity interaction (Kinase panel (literature)) EUB0001199aCl STK3. The note with it: at 1 µM.

Assay [5] concerns the target T3, Serine/threonine-protein kinase LATS2 (Homo sapiens) (UniProt Q9NRM7).
T3 sequence (whole entry): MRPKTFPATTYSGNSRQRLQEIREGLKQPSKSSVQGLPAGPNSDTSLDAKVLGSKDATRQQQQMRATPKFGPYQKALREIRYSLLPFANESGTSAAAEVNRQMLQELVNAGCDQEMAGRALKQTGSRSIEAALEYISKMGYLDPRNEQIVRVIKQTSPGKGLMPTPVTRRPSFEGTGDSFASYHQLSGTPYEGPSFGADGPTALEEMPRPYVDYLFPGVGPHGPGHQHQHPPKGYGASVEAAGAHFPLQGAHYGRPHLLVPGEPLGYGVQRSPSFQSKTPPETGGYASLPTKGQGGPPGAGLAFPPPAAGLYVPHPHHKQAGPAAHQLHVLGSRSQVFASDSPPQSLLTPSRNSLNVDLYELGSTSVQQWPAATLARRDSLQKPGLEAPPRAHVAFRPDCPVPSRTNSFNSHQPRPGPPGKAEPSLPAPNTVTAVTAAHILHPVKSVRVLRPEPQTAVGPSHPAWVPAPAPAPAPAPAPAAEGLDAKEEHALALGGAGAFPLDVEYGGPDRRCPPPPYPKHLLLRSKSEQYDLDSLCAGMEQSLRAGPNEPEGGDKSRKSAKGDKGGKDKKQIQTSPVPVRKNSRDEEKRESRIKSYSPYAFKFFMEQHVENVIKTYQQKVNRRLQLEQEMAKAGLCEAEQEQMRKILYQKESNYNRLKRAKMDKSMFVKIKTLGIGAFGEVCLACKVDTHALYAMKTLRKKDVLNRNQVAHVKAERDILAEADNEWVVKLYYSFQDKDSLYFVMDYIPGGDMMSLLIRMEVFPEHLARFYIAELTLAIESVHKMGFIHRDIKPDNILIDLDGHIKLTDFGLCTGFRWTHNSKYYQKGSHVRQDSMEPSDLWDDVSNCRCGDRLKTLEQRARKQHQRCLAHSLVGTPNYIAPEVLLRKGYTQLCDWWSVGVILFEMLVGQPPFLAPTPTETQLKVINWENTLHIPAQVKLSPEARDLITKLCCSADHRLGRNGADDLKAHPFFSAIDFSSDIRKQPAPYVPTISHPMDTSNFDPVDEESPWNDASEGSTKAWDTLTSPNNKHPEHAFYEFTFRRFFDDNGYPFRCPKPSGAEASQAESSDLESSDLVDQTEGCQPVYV
In words: Selectivity interaction (KinomeScan (DiscoverX)) EUB0000092b LATS2. Conditions: at 10 µM.

Sequence of Calcium/calmodulin-dependent protein kinase type II subunit delta (Homo sapiens) (Q13557 whole entry): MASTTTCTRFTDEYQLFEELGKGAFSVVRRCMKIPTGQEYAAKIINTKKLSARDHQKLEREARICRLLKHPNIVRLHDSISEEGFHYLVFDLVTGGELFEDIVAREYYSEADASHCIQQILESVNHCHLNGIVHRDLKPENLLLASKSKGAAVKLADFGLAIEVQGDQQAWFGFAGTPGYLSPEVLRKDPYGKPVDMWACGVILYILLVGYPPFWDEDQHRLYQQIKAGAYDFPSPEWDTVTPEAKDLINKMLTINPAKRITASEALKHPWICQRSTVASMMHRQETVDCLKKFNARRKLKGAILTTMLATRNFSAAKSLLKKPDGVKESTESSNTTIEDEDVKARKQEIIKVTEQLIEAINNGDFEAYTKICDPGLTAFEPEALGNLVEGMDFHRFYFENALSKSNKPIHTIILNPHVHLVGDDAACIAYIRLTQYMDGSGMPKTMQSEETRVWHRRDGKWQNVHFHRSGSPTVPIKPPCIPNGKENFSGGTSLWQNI
Sequence of Receptor-interacting serine/threonine-protein kinase 2 (O43353 whole entry): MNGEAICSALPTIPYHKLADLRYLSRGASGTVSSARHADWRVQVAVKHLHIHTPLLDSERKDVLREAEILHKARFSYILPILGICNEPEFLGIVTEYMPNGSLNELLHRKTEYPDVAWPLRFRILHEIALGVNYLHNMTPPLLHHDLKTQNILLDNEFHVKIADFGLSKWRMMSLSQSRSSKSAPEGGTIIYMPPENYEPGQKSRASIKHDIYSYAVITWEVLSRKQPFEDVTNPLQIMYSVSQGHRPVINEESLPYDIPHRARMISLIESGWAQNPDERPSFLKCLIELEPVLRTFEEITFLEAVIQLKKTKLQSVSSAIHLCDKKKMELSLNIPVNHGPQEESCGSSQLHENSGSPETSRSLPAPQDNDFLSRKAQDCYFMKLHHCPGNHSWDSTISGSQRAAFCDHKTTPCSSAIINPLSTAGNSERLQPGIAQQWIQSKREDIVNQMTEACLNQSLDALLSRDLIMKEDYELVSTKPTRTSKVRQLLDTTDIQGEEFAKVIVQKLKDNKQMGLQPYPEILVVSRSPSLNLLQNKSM

For `CNC(=O)Nc1ccc(-c2nc(N3CC4CCC(C3)O4)c3cnn(C4CCC5(CC4)OCCO5)c3n2)cc1`, the % of control in assay [1] is 80%; in assay [2], 100%.

In turn, `Nc1cnc(N2CCc3cc(S(=O)(=O)Nc4c(F)cc(Cl)cc4F)cc(N4CCCC4=O)c32)nc1` [TP-020n] yielded a % of control in assay [3] of 53%.

Consider `CN1Cc2nccc(-c3cn(C)nc3-c3ccc(F)cc3)c2C1=O`, for which the % of inhibition in assay [4] is -2%.

On to `CCC(=O)N1CCN(c2ccc(-n3c(=O)ccc4cnc5ccc(-c6cnc7ccccc7c6)cc5c43)cc2C(F)(F)F)CC1`, for which, in assay [5], the % of control was 100%.
